Test results published in patent US9415046B2, “Compositions and methods for inhibiting inflammation from and rejection of biomaterials and other methods” (YALE UNIVERSITY, priority 2009, dated 2016).
“Also recorded” adds a separate entry of the source.

What was measured:
Format in all cases: in vivo
[1] = system: C57BL/6 mice; test: Foreign body reaction to 150 micron polystyrene beads injected into the abdominal cavity; conditions: 24 hours, FIG. 2
Experimental: (§1) Two models of the foreign body reaction were tested. In the first model, injection of 150 micron polystyrene beads into the abdominal cavity of C57BL/6 was followed by analysis of cellular infiltrate 24 hours later. In the second model, implantation of a 6 mm disc of silicone subcutaneously was followed by analysis of the foreign body reaction about one month later. The above two models were performed on mice on normal drinking water or with aspirin (60 mg/ml). […] The experiment evidenced that the cellular infiltrate at 24 hours was comprised principally of immune cells (neutrophils and macrophages).

[2] = system: wild-type mice; test: Foreign body reaction to subcutaneously implanted 6 mm silicone disc; conditions: silicone implant, one month, aspirin 60 mg/ml in drinking water, P<0.05 compared to no ASA, FIG. 7
Experimental: as §1, with “macrophages). […] A 6 mm disc of silicone was implanted subcutaneously in experimental mice (see above), followed by analysis of the foreign body reaction around one month later. The mice were placed on normal drinking water or water with aspirin at a concentration of 60 mg/ml. […] Wild-type mice were implanted with a silicone capsule on the side of the muscle and on the side of the skin. The mice were either given regular drinking water or drinking water containing 60 mg/ml aspirin. After one month, the mice were then analyzed to determine if there was an impact on the foreign body reaction which occurred as a consequence of implanting the silicone capsulate.” for “macrophages).”

[3] = system: wild-type mice; test: APAP (acetaminophen) induced liver inflammation, liver injury and mortality; conditions: by down regulation of pro-inflammatory cytokines
Experimental: APAP (Sigma, Mo.) solution was made fresh for each experiment in PBS at 20 mg/ml and heated in a water bath to 55° C. to dissolve. APAP was dosed at 500 mg/kg and injected I.P after 15 hrs of starvation. Animals were euthanized by ketamine/xylazine injection at 12 hours for collection of serum, isolation of liver lymphocytes or collection of liver tissue for histology, or they were observed every four hours for 72 hours until they reached criteria for euthanasia (lack of response to stimuli or lack of righting reflex). FIGS. 3A and B show less hemorrhage and cell death in the livers of mice lacking TLR9 compared to wild-type and FIGS. 3C and D show a similar affect of TLR7. […] The data was generated by a single ip injection of APAP at a dose of 500 mg/kg. Data in Figures A to D was generated 12 hours after APAP and E and F is over a 3 day period.
Data was generated 12 hours after injection of APAP. […] The data was generated over 72 hours (3 days). […] Data was generated from 23 hours after injection of APAP.

## CC(=O)Oc1ccccc1C(=O)O [aspirin, acetylsalicylic acid]
[1]; continuous aspirin in drinking water (60 mg/ml)
  foreign body reaction to polystyrene beads (number of cells in cellular infiltrate): substantially diminished; also recorded: significantly reduced
[1]; continuous aspirin
  composition of the cellular infiltrate (neutrophils and macrophages): not significantly altered
[2]
  thickness of the foreign body reaction capsule on the side of the muscle and on the side of the skin: significant reduction
[3]
  effect on acetaminophen-induced liver injury: protective effect
